Reference: PMC12669040, “Tumour-specific STING agonist synthesis via a two-component prodrug system” (Nature Chemistry, 2025)
Values joined by “and” are separate entries in the source; they are usually repeats but may differ in a detail not shown here. Equal values may be shown once.

How the values were obtained:
[1] = Colorimetric alkylation rate constant assay with thiol N1; assay type: physicochemical; conditions: for remaining [A]: N1 from calibration curve (N1 in uM); for remaining [A] / remaining [B]: in µM
[2] = Colorimetric alkylation rate constant assay with TNB^2− as non-specific thiol; assay type: physicochemical; parameters: second-order: unit not given here; conditions: for remaining [B]: in µM
[3] = Time 2891 sec, [B]0 = 250, Replicates 1-3
[4] = Time 3071 sec, [B]0 = 250, Replicates 1-3
[5] = Time 3252 sec, [B]0 = 250, Replicates 1-3
[6] = Time 3433 sec, [B]0 = 250, Replicates 1-3
[7] = Time 3613 sec, [B]0 = 250, Replicates 1-3

SMILES: O=C(CCl)Nc1ccc(F)cc1 [Compound C3]
- remaining [A] ([1]; Replicate 1, time 576 sec): 79.3821
- remaining [B] ([1]; Replicate 1, time 576 sec, [B]0 = 250): 225.262
- second-order ([1]; Replicate 1, time 576 sec, second-order plot value): 0.001145
- remaining [A] ([1]; Replicate 1, time 606 sec): 78.3561
- remaining [B] ([1]; Replicate 1, time 606 sec, [B]0 = 250): 224.236
- second-order ([1]; Replicate 1, time 606 sec, second-order plot value): 0.001203
- remaining [A] ([1]; Replicate 2, time 576 sec): 78.9353
- remaining [B] ([1]; Replicate 2, time 576 sec, [B]0=250): 225.794
- second-order ([1]; Replicate 2, time 576 sec, second-order plot value): 0.001128
- remaining [A] ([1]; Replicate 2, time 606 sec): 77.6031
- remaining [B] ([1]; Replicate 2, time 606 sec, [B]0=250): 224.461
- second-order ([1]; Replicate 2, time 606 sec, second-order plot value): 0.001203
- remaining [A] ([1]; Replicate 3, time 576 sec): 80.3332
- remaining [B] ([1]; Replicate 3, time 576 sec, [B]0=250): 225.786
- second-order ([1]; Replicate 3, time 576 sec, second-order plot value): 0.001111
- remaining [A] ([1]; Replicate 3, time 606 sec): 79.3051
- remaining [B] ([1]; Replicate 3, time 606 sec, [B]0=250): 224.758
- second-order ([1]; Replicate 3, time 606 sec, second-order plot value): 0.001168
- remaining [B] ([1]; time 0 sec, [B]0 = 250, replicates 1-3): 246.537 and 247.093 and 245.89
- second-order ([1]; time 0 sec, replicates 1-3): 0.000164 and 0.0001357 and 0.0001139
- remaining [B] ([1]; time 30 sec, [B]0 = 250, replicates 1-3): 245.319 and 244.842 and 244.643
- second-order ([1]; time 30 sec, replicates 1-3): 0.0002157 and 0.000185 and 0.0002054
- remaining [B] ([1]; time 60 sec, [B]0 = 250, replicates 1-3): 243.453 and 243.816 and 242.942
- second-order ([1]; time 60 sec, replicates 1-3): 0.0002877 and 0.0002622 and 0.000248
- remaining [B] ([1]; time 91 sec, [B]0 = 250, replicates 1-3): 242.316 and 242.334 and 241.723
- second-order ([1]; time 91 sec, replicates 1-3): 0.0003403 and 0.0003102 and 0.0003108
- remaining [B] ([1]; time 121 sec, [B]0 = 250, replicates 1-3): 241.072 and 241.108 and 240.278
- second-order ([1]; time 121 sec, replicates 1-3): 0.0004041 and 0.0003637 (2×)
- remaining [B] ([1]; time 151 sec, [B]0 = 250, replicates 1-3): 240.152 and 239.968 and 239.257
- second-order ([1]; time 151 sec, replicates 1-3): 0.0004499 and 0.0004039 and 0.0004137
- remaining [B] ([1]; time 182 sec, [B]0 = 250, replicates 1-3): 239.232 and 238.714 and 238.265
- second-order ([1]; time 182 sec, replicates 1-3): 0.0004951 and 0.0004446 and 0.0004698
- remaining [B] ([1]; time 212 sec, [B]0 = 250, replicates 1-3): 238.15 and 237.631 and 237.245
- second-order ([1]; time 212 sec, replicates 1-3): 0.0005423 and 0.0004932 and 0.0005191
- remaining [B] ([1]; time 242 sec, [B]0 = 250, replicates 1-3): 236.96 and 236.491 and 236.366
- second-order ([1]; time 242 sec, replicates 1-3): 0.0005835 and 0.0005476 and 0.0005718
- remaining [B] ([1]; time 273 sec, [B]0 = 250, replicates 1-3): 235.85 and 235.38 and 235.431
- second-order ([1]; time 273 sec, replicates 1-3): 0.0006281 and 0.0005992 and 0.0006241
- remaining [B] ([1]; time 303 sec, [B]0 = 250, replicates 1-3): 234.308 and 234.268 and 234.354
- second-order ([1]; time 303 sec, replicates 1-3): 0.0006802 and 0.0006724 and 0.0006773
- remaining [B] ([1]; time 333 sec, [B]0 = 250, replicates 1-3): 233.361 and 233.157 and 233.277
- second-order ([1]; time 333 sec, replicates 1-3): 0.0007331 and 0.0007182 and 0.0007315
- remaining [B] ([1]; time 364 sec, [B]0 = 250, replicates 1-3): 232.279 and 232.188 and 232.341
- second-order ([1]; time 364 sec, replicates 1-3): 0.0007799 and 0.0007714 and 0.0007795
- remaining [B] ([1]; time 394 sec, [B]0 = 250, replicates 1-3): 231.197 and 231.247 and 230.981
- second-order ([1]; time 394 sec, replicates 1-3): 0.0008491 and 0.0008256 and 0.0008268
- remaining [B] ([1]; time 424 sec, [B]0 = 250, replicates 1-3): 230.602 and 230.05 and 230.442
- second-order ([1]; time 424 sec, replicates 1-3): 0.000877 and 0.0008557 and 0.000888
- remaining [B] ([1]; time 454 sec, [B]0 = 250, replicates 1-3): 229.357 and 229.309 and 229.478
- second-order ([1]; time 454 sec, replicates 1-3): 0.0009274 and 0.0009198 and 0.0009265
- remaining [B] ([1]; time 485 sec, [B]0 = 250, replicates 1-3): 228.681 and 228.084 and 229.195
- second-order ([1]; time 485 sec, replicates 1-3): 0.0009424 and 0.0009551 and 0.0009912
- remaining [B] ([1]; time 515 sec, [B]0 = 250, replicates 1-3): 227.112 and 227.086 and 227.097
- second-order ([1]; time 515 sec, replicates 1-3): 0.001056 and 0.001039 and 0.001045
- remaining [B] ([1]; time 545 sec, [B]0 = 250, replicates 1-3): 226.462 and 226.317 and 225.935
- second-order ([1]; time 545 sec, replicates 1-3): 0.00112 and 0.001074 and 0.001087
- remaining [B] ([2]; Replicate 1, 723 sec, [B]0 = 250): 244.563
- remaining [B] ([2]; Replicate 1, 903 sec, [B]0 = 250): 244.311
- remaining [B] ([2]; Replicate 1, 1084 sec, [B]0 = 250): 243.946
- remaining [B] ([2]; Replicate 1, 1265 sec, [B]0 = 250): 243.644
- remaining [B] ([2]; Replicate 1, 1445 sec, [B]0 = 250): 243.291
- remaining [B] ([2]; Replicate 1, 1626 sec, [B]0 = 250): 242.976
- remaining [B] ([2]; Replicate 1, 1806 sec, [B]0 = 250): 242.497
- remaining [B] ([2]; Replicate 1, 1988 sec, [B]0 = 250): 242.245
- remaining [B] ([2]; Replicate 1, 2168 sec, [B]0 = 250): 242.005
- remaining [B] ([2]; Replicate 1, 2349 sec, [B]0 = 250): 241.552
- remaining [B] ([2]; Replicate 1, 2530 sec, [B]0 = 250): 241.262
- remaining [B] ([2]; Replicate 1, 2710 sec, [B]0 = 250): 240.985
- remaining [B] ([2]; Replicate 2, 542 sec, [B]0=250): 244.808
- remaining [B] ([2]; Replicate 2, 723 sec, [B]0=250): 244.493
- remaining [B] ([2]; Replicate 2, 903 sec, [B]0=250): 244.204
- remaining [B] ([2]; Replicate 2, 1084 sec, [B]0=250): 243.889
- remaining [B] ([2]; Replicate 2, 1265 sec, [B]0=250): 243.586
- remaining [B] ([2]; Replicate 2, 1445 sec, [B]0=250): 243.259
- remaining [B] ([2]; Replicate 2, 1626 sec, [B]0=250): 242.931
- remaining [B] ([2]; Replicate 2, 1806 sec, [B]0=250): 242.666
- remaining [B] ([2]; Replicate 2, 1988 sec, [B]0=250): 242.326
- remaining [B] ([2]; Replicate 2, 2168 sec, [B]0=250): 242.036
- remaining [B] ([2]; Replicate 2, 2349 sec, [B]0=250): 241.734
- remaining [B] ([2]; Replicate 2, 2530 sec, [B]0=250): 241.457
- remaining [B] ([2]; Replicate 2, 2710 sec, [B]0=250): 241.142
- remaining [B] ([2]; Replicate 3, 723 sec, [B]0=250): 244.853
- remaining [B] ([2]; Replicate 3, 903 sec, [B]0=250): 244.526
- remaining [B] ([2]; Replicate 3, 1084 sec, [B]0=250): 244.173
- remaining [B] ([2]; Replicate 3, 1265 sec, [B]0=250): 243.82
- remaining [B] ([2]; Replicate 3, 1445 sec, [B]0=250): 243.568
- remaining [B] ([2]; Replicate 3, 1626 sec, [B]0=250): 243.24
- remaining [B] ([2]; Replicate 3, 1806 sec, [B]0=250): 242.913
- remaining [B] ([2]; Replicate 3, 1988 sec, [B]0=250): 242.686
- remaining [B] ([2]; Replicate 3, 2168 sec, [B]0=250): 242.333
- remaining [B] ([2]; Replicate 3, 2349 sec, [B]0=250): 241.955
- remaining [B] ([2]; Replicate 3, 2530 sec, [B]0=250): 241.627
- remaining [B] ([2]; Replicate 3, 2710 sec, [B]0=250): 241.35
- second-order [2, 3]: 0.0003934 and 0.0003816 and 0.000404
- remaining [B] [2, 3]: 241.06 and 240.569 and 240.801
- second-order [2, 4]: 0.0004067 and 0.0003942 and 0.0004162
- remaining [B] [2, 4]: 240.783 and 240.304 and 240.512
- second-order [2, 5]: 0.0004206 and 0.0004081 and 0.0004267
- remaining [B] [2, 5]: 240.481 and 240.077 and 240.209
- second-order [2, 6]: 0.0004352 and 0.0004273 and 0.0004471
- remaining [B] [2, 6]: 240.065 and 239.636 and 239.894
- second-order [2, 7]: 0.0004498 and 0.0004372 and 0.0004612
- remaining [B] [2, 7]: 239.851
- second-order ([2]; Time 3794 sec, [B]0 = 250, Replicates 1-3): 0.0004633 and 0.0004542 and 0.0004754
- second-order ([2]; Time 3974 sec, [B]0 = 250, Replicates 1-3): 0.0004793 and 0.0004648 and 0.0004891
- second-order ([2]; Time 4155 sec, [B]0 = 250, Replicates 1-3): 0.0004918 and 0.0004819 and 0.0004992
- second-order ([2]; Time 4336 sec, [B]0 = 250, Replicates 1-3): 0.0005073 and 0.0004944 and 0.000519
- second-order ([2]; Time 4516 sec, [B]0 = 250, Replicates 1-3): 0.0005217 and 0.00051 and 0.0005352
- second-order ([2]; Time 4697 sec, [B]0 = 250, Replicates 1-3): 0.0005368 and 0.0005292 and 0.0005485
- second-order ([2]; Time 4878 sec, [B]0 = 250, Replicates 1-3): 0.0005501 and 0.00054 and 0.0005589
- second-order ([2]; Time 5058 sec, [B]0 = 250, Replicates 1-3): 0.0005616 and 0.0005558 and 0.0005759
- second-order ([2]; Time 5239 sec, [B]0 = 250, Replicates 1-3): 0.0005799 and 0.0005704 and 0.0005876
- second-order ([2]; Time 5419 sec, [B]0 = 250, Replicates 1-3): 0.0005928 and 0.0005784 and 0.0006067
- second-order ([2]; Time 5600 sec, [B]0 = 250, Replicates 1-3): 0.000607 and 0.0005999 and 0.0006197
- second-order ([2]; Time 5781 sec, [B]0 = 250, Replicates 1-3): 0.0006238 and 0.0006104 and 0.000634
- second-order ([2]; Time 5961 sec, [B]0 = 250, Replicates 1-3): 0.0006375 and 0.0006271 and 0.0006509
